Data set [1] deals with human red blood cells (RBCs). The experiment in a line: Hemolytic activity assay. Format: cell-based. The settings on record: 2% human RBCs, 30 min, 37° C. How it is done: Hemolytic Activity Assay. For hemolytic assays, washed human red blood cells (RBCs) (Innovative Research, Novi, MI USA) were suspended in 1×PBS (pH 7.2, Wisent, Quebec City, QC Canada) to a final concentration of 2%. For sequestration studies, liposomal samples were diluted in PBS to the desired concentration and added to the erythrocytes. The hemolytic reaction was then initiated through the addition of either bacterial supernatant normalized to a 0.5 McFarland standard or recombinant S. pneumoniae serotype 2 PLY (E. coli host expression, MyBioSource, San Diego, CA USA) at the desired volume or concentration. For assays involving PLY, the toxin was preincubated with 2 mM dithiothreitol (DTT) for 1 hr at room temperature prior to the assay in order to reduce the cysteine residue present in the undecapeptide sequence and activate the protein [59]. The solution was incubated in a 1.5 ml Eppendorf microtube for 30 min at 37° C. and non-lysed RBCs were pelleted via centrifugation at 1000×g for 10 min at 4° C. The supernatant was then collected and transferred to a 96 well plate, with the extent of hemoglobin release determined via absorbance measurements at 450 nm. A control set was also included, involving a negative control of RBCs in only PBS and a positive control of RBCs in a 0.02% Triton™ X-100 solution (100% lysis). Percent lysis was determined from these readouts as per Eq (4): […]

Data set [2] in a line: Calcein fluorescence stability in 1685 NYC III medium and G. vaginalis supernatant. The settings on record: 10 μg/mL calcein, 37° C., 140 hours. Format: physicochemical. As to the method: Bacteria-responsive calcein release of liposomes. Calcein's stability in different media was evaluated by measuring its fluorescence intensity that varied with time in 1685 NYC III medium and G. vaginalis supernatant, respectively. Briefly, calcein was dissolved in the medium to reach a concentration of 10 μg/mL (with 1% v/v penicillin/streptomycin) added. The solution was incubated at 37° C. and shaken at 100 rpm (avoid light). Samples were taken at different time intervals and changes of fluorescence intensity were monitored.

We go through 2 compounds from patent US20260271926A1, “BACTERIA-RESPONSIVE PARTICLES, METHODS FOR PREPARATION, AND USE IN PACKAGING OR ON SURFACES” (priority 2023, published 2026).

For the compound pneumolysin [PLY], the “concentration giving full lysis” value in data set [1] worked out at 200 ng/mL.

Consider `O=C(O)CN(CC(=O)O)Cc1cc2c(cc1O)Oc1cc(O)c(CN(CC(=O)O)CC(=O)O)cc1C21OC(=O)c2ccccc21` [calcein], for which, in data set [2], the calcein fluorescence decrease is 11-15%.
